The target in the first test is T1, human Nav1.8 (Homo sapiens, UniProt Q9Y5Y9).
T1 construct: expressed in transfected cells; host or cells: HEK293 (HEK293-Nav1.8)
T1 sequence (Q9Y5Y9 whole entry): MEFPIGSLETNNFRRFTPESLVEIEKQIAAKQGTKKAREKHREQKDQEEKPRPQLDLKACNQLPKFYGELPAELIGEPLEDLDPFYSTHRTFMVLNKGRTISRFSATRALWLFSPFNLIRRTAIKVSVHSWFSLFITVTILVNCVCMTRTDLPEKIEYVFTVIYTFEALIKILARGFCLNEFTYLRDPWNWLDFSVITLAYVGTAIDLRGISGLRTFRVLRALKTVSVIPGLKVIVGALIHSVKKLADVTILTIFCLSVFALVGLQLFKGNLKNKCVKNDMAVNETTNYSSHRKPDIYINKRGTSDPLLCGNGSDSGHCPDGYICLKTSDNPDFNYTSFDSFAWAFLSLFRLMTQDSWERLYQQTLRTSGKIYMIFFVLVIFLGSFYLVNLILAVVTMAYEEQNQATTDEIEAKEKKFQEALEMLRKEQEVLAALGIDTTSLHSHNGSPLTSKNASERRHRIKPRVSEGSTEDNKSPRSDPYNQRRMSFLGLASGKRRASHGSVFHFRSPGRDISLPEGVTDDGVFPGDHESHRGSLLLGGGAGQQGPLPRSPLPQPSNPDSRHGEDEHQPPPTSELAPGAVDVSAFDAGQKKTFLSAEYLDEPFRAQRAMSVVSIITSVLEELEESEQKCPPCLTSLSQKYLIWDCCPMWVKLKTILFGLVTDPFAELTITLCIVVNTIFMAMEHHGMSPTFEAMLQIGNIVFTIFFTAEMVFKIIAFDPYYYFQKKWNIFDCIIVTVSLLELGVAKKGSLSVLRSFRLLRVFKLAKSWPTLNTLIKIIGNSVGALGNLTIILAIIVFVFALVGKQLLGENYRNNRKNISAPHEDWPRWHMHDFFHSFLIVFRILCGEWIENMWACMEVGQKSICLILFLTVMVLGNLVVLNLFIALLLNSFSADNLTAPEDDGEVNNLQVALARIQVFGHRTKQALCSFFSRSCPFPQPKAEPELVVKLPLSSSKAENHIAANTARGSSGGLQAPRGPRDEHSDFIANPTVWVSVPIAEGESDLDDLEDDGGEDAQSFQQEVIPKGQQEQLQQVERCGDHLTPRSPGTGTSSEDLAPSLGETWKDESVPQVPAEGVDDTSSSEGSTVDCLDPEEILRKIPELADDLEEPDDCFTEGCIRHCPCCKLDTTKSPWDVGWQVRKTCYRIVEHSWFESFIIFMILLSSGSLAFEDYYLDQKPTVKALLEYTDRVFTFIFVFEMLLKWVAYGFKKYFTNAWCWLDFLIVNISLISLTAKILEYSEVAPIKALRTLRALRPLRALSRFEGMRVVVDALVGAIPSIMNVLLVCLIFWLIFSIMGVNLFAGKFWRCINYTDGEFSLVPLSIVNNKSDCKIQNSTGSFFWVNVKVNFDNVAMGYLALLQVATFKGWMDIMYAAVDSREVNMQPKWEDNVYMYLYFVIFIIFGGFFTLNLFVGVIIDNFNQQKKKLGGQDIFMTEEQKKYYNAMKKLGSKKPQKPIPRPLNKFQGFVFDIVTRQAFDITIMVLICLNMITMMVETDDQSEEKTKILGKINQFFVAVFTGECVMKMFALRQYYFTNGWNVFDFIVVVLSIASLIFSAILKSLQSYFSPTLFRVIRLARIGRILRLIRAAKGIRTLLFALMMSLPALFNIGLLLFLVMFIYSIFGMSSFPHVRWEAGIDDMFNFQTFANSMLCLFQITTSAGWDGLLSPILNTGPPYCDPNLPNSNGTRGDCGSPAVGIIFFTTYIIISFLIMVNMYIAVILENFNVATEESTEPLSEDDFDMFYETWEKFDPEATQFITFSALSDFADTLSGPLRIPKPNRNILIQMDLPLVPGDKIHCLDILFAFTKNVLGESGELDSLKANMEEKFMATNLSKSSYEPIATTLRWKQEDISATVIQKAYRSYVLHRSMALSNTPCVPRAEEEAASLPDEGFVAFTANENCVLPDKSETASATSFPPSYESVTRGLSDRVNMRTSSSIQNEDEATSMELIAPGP
T1 sequence (Q07699 19-218 partner): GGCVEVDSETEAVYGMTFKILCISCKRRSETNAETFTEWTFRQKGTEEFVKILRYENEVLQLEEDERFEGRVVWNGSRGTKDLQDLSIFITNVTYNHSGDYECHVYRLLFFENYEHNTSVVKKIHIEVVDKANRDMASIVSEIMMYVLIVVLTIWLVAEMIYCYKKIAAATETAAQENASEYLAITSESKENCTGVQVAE
Put plainly: Nav1.8 sodium channels assay, QPatch 48 HTX electrophysiology in HEK293-Nav1.8 cells. It counts as cell-based. The conditions noted are these: Table 1; HEK293-Nav1.8, QPatch 48 HTX, half inactivation state voltage protocol (V1/2); single run or average of two or more runs; read-out: Nav1.8 pIC50 (converted). How it is done:
Human embryonic kidney […] cells (HEK293) expressing human Nav1.8, human Navβ1 and human TREK1 (HEK293-Nav1.8) were grown at 37° C., 5% CO2 in 150 cm^2 flasks. HEK293-Nav1.8 were passaged every 2-3 days when confluency reached 80-90% in to T175 cell culture flasks.
Pharmacological assessment of the invention was performed using HEK293-Nav1.8 in combination with an assay developed on the QPatch 48 HTX electrophysiological system. HEK293-Nav1.8 were prepared on the day of use by removing culture media, washing in DPBS, adding Accutase (2 ml to cover the surface, aspirate 1 ml then 1.5 min at 37° C.) followed by addition of CHO-SFM II to stop the enzyme digestion and in order to obtain a suspension of 3×10^6 cell/mL.
The invention was prepared in an extracellular solution of the following composition (in mM) NaCl 145, KCl 4, CaCl2 2, MgCl 2, HEPES 1, Glucose 10, pH 7.4 with NaOH Osmolality 300 mOsM/L. The intracellular solution was used of the following composition (in mM) CsF 115, CsCl 20, NaCl 5, EGTA 10, HEPES 10, Sucrose 20, pH 7.2 with CsOH Osmolality 310 mOsm/L.
Utilizing the voltage-clamp mode in the QPatch 48 HTX system a half inactivation state voltage protocol (V1/2) was used to determine pharmacological activity of the invention at Nav1.8 ion channels. A V1/2 protocol was utilized with the following voltage steps: a holding voltage of −100 mV was established followed by a 20 ms voltage step to 0 mV (P1), followed by an inactivating voltage step at −46 mV for 8 seconds, followed by a step to −100 mV for 20 ms, before a 20 ms step to 0 mV (P2) before returning to the holding voltage of −100 mV. This voltage protocol was repeated at a frequency of 0.07 Hz., current magnitude was quantified at the P2 step throughout the recording. Inhibition of the measured current amplitude with the invention was analyzed by fitting a 6-8 point dose-response curve allowing determination of the fifty percent inhibition concentration (IC50). Within the QPatch HTX software, P2 current was normalized according to measurements made at baseline after compound and after positive reference compound and fit to the following equation: […]
To assess current run-down over the course of the experiment vehicle-only wells were utilized and the normalized current with vehicle-only (n.IVEH) was determined. To correct the compound response for run-down, the currents were correct according the following formula: […]
Compounds of the invention are tested for activity against Nav1. 8 sodium channels in the above assay.
In general terms: In patch-clamp work, channel activity is measured electrically.
As to `O=C1c2ccc(C(F)(F)F)cc2N(c2ccc(F)cc2Cl)CN1c1ccc(=O)[nH]c1` [drawing 276, 1-(2-chloro-4-fluorophenyl)-3-(6-oxo-1,6-dihydropyridin-3-yl)-7-(trifluoromethyl)-2,3-dihydroquinazolin-4(1H)-one], the IC50 is 501 nM.
With `Cc1cc(F)ccc1N1CN(c2ccc(=O)[nH]c2C)C(=O)c2ccc(C#N)cc21` [drawing 299, 1-(4-fluoro-2-methylphenyl)-3-(2-methyl-6-oxo-1,6-dihydropyridin-3-yl)-4-oxo-1,2,3,4-tetrahydroquinazoline-7-carbonitrile], the IC50 is 25.1 nM.
The same measure, in the same setting: the same measure for `O=C1c2ccc(C(F)(F)F)cc2N(c2ccc(F)cc2F)CN1c1ccc(=O)[nH]c1` [drawing 278, 1-(2,4-difluorophenyl)-3-(6-oxo-1,6-dihydropyridin-3-yl)-7-(trifluoromethyl)-2,3-dihydroquinazolin-4(1H)-one]: 794 nM.

Still in this test, the particulars now being: Table 2; HEK293-Nav1.8, QPatch 48 HTX, half inactivation state voltage protocol (V1/2); single run or average of two or more runs; read-out: Nav1.8 pIC50 (converted).
`Cc1cc(F)ccc1N1CN(c2cc[nH]c(=O)c2)C(=O)c2ccc(C(F)(F)F)cc21` [drawing 309, 1-(4-fluoro-2-methylphenyl)-3-(2-oxo-1,2-dihydropyridin-4-yl)-7-(trifluoromethyl)-2,3-dihydroquinazolin-4(1H)-one]: the IC50 was 398 nM.

Staying with this test, now noted: at least one set of experimental runs; read-out: average pIC50 value against Nav1.8 (converted).
For `Cc1cc(=O)[nH]c(C)c1N1CN(c2ccc(F)cc2C(C)C)c2cc(C(F)(F)F)ccc2C1=O` (single isomer, unassigned) [Example 290, 3-(2,4-dimethyl-6-oxo-1,6-dihydropyridin-3-yl)-1-(4-fluoro-2-isopropylphenyl)-7-(trifluoromethyl)-2,3-dihydroquinazolin-4(1H)-one], the IC50 was 126 to 631 nM.
As to `Cc1[nH]c(=O)ccc1N1CN(c2ccc(F)cc2C(C)C)c2cc(F)ccc2C1=O` [Example 93, 7-fluoro-1-(4-fluoro-2-isopropylphenyl)-3-(2-methyl-6-oxo-1,6-dihydropyridin-3-yl)-2,3-dihydroquinazolin-4(1H)-one], the IC50 was not above 100 nM.
As for `Cc1[nH]c(=O)ccc1N1CN(c2ccc(F)cc2C(C)(C)C)c2ccc(Cl)cc2C1=O` (single isomer, unassigned) [Example 293, 1-(2-(tert-Butyl)-4-fluorophenyl)-6-chloro-3-(2-methyl-6-oxo-1,6-dihydropyridin-3-yl)-2,3-dihydroquinazolin-4(1H)-one], the IC50 is 126 to 631 nM.
`Cc1[nH]c(=O)ccc1N1CN(c2ccc(F)cc2C(C)C)c2nc(C(F)F)ccc2C1=O` [Example 122, 7-(difluoromethyl)-1-(4-fluoro-2-isopropylphenyl)-3-(2-methyl-6-oxo-1,6-dihydropyridin-3-yl)-2,3-dihydropyrido[2,3-d]pyrimidin-4(1H)-one]: the IC50 was not above 100 nM.
Turning to `Cc1cc(F)ccc1N1CN(c2ccc(=O)[nH]c2C)C(=O)c2cc(F)c(F)cc21` [Example 158, 6,7-difluoro-1-(4-fluoro-2-methylphenyl)-3-(2-methyl-6-oxo-1,6-dihydropyridin-3-yl)-2,3-dihydroquinazolin-4(1H)-one], the IC50 is not above 100 nM.
Consider `Cc1cc(F)ccc1N1CN(c2ccc(=O)[nH]c2C)C(=O)c2c1cc(C#N)c(Cl)c2F` [Example 194, 6-chloro-5-fluoro-1-(4-fluoro-2-methylphenyl)-3-(2-methyl-6-oxo-1,6-dihydropyridin-3-yl)-4-oxo-1,2,3,4-tetra-hydroquinazoline-7-carbonitrile], for which the IC50 is not above 100 nM.
As for `Cc1[nH]c(=O)ccc1N1CN(c2ccc(F)cc2C(C)C)c2ncc(F)cc2C1=O` [Example 141, 6-fluoro-1-(4-fluoro-2-isopropylphenyl)-3-(2-methyl-6-oxo-1,6-dihydropyridin-3-yl)-2,3-dihydropyrido[2,3-d]pyrimidin-4(1H)-one], the IC50 is 126 to 631 nM.
Turning to `Cc1cc(F)ccc1N1CN([C@@H]2CCC(=O)N[C@@H]2C)C(=O)c2ccc(C(F)(F)F)cc21` [Example 288, 1-(4-Fluoro-2-methylphenyl)-3-((2R,3R)-2-methyl-6-oxopiperidin-3-yl)-7-(trifluoromethyl)-2,3-dihydroquinazolin-4(1H)-one], the IC50 is 126 to 631 nM.
As for `Cc1cc(=O)[nH]cc1N1CN(c2ccc(F)cc2C)c2cc(C(F)(F)F)ccc2C1=O` [Example 221, 1-(4-fluoro-2-methylphenyl)-3-(4-methyl-6-oxo-1,6-dihydropyridin-3-yl)-7-(trifluoromethyl)-2,3-dihydroquinazolin-4(1H)-one], the IC50 was 126 to 631 nM.
Turning to `Cc1[nH]c(=O)ccc1N1CN(c2ccc(F)cc2C(C)C)c2ccc(F)cc2C1=O` [Example 180, 6-fluoro-1-(4-fluoro-2-isopropylphenyl)-3-(2-methyl-6-oxo-1,6-dihydropyridin-3-yl)-2,3-dihydroquinazolin-4(1H)-one], the IC50 is not above 100 nM.
For `Cc1ccc(F)cc1N1CN(c2ccc(=O)[nH]c2C)C(=O)c2cc(C(F)(F)F)ccc21` [Example 118, 1-(5-fluoro-2-methylphenyl)-3-(2-methyl-6-oxo-1,6-dihydropyridin-3-yl)-6-(trifluoromethyl)-2,3-dihydroquinazolin-4(1H)-one], the IC50 was 126 to 631 nM.
Still for that read-out and setting: the same measure for `Cc1[nH]c(=O)ccc1N1CN(c2ccccc2CC(F)(F)F)c2ccc(C(F)(F)F)cc2C1=O` [Example 240, 3-(2-Methyl-6-oxo-1,6-dihydropyridin-3-yl)-1-(2-(2,2,2-trifluoroethyl)phenyl)-6-(trifluoromethyl)-2,3-dihydroquinazolin-4(1H)-one]: not above 100 nM.
For the molecule `Cc1cc(F)ccc1N1CN(c2ccc[n+]([O-])c2)C(=O)c2cc(C(F)(F)F)ccc21` [Example 249, 3-(1-(4-fluoro-2-methylphenyl)-4-oxo-6-(trifluoromethyl)-1,4-dihydroquinazolin-3(2H)-yl)pyridine 1-oxide], the IC50 is 794 to 7940 nM.
On the same count and under the same terms, as for `Cc1[nH]c(=O)ccc1N1CN([C@H]2CCOC[C@@H]2C)c2cc(C(F)(F)F)ccc2C1=O` [Example 283, 3-(2-Methyl-6-oxo-1,6-dihydropyridin-3-yl)-1-((3R,4S)-3-methyltetrahydro-2H-pyran-4-yl)-7-(trifluoromethyl)-2,3-dihydroquinazolin-4(1H)-one], the figure is 126 to 631 nM; as for `Cc1cc(F)ccc1N1CN(c2ccc(=O)[nH]c2C#N)C(=O)c2ccc(C(F)(F)F)cc21` [Example 154, 3-(1-(4-fluoro-2-methylphenyl)-4-oxo-7-(trifluoromethyl)-1,4-dihydroquinazolin-3(2H)-yl)-6-oxo-1,6-dihydropyridine-2-carbonitrile], 126 to 631 nM.
Turning to `Cc1cc(F)ccc1N1CN(c2ccc(=O)[nH]c2C)C(=O)c2cc(F)ccc21` [Example 143, 6-fluoro-1-(4-fluoro-2-methylphenyl)-3-(2-methyl-6-oxo-1,6-dihydropyridin-3-yl)-2,3-dihydroquinazolin-4(1H)-one], the IC50 was not above 100 nM.
As for `Cc1cc(F)ccc1N1CN(c2ccc(=O)[nH]c2C)C(=O)c2c(F)cccc21` [Example 183, 5-fluoro-1-(4-fluoro-2-methylphenyl)-3-(2-methyl-6-oxo-1,6-dihydropyridin-3-yl)-2,3-dihydroquinazolin-4(1H)-one], the IC50 was 126 to 631 nM.
As for `CCc1cc(F)ccc1N1CN(c2ccc(=O)[nH]c2C)C(=O)c2cc(Cl)ccc21` [Example 81, 6-chloro-1-(2-ethyl-4-fluorophenyl)-3-(2-methyl-6-oxo-1,6-dihydropyridin-3-yl)-2,3-dihydroquinazolin-4(1H)-one], the IC50 was not above 100 nM.

The values are drawn from patent US20230103791A1 (GLAXOSMITHKLINE INTELLECTUAL PROPERTY DEVELOPMENT LIMITED, priority 2019, published 2023).
